Reference: patent publication US20080004180A1, “Novel Herbicides Based on Substituted Thien-3-Yl-Sulphonylamino(Thio) Carbonyl-Triazolin(Thi)Ones and 4-Hppd-Inhibitors” (Bayer Cropscience AG, priority 2004, published 2008)

Legend:
Format in all cases: in vivo
[1] = system: Alopecurus myosuroides; assay: Herbicidal action against Alopecurus myosuroides, single ingredients and combinations, with Colby expected action
From the text: (§1) A synergistic effect is present in the case of herbicides whenever the herbicidal action of the active ingredient combination is greater than that of the individual active ingredients applied.
(§2) The anticipated action for a given combination of two herbicides can be calculated as follows (cf. COLBY, S. R.: “Calculating synergistic and antagonistic responses of herbicide combinations”, Weeds 15, pages 20-22, 1967):
(§3) If • X=% damage by herbicide A (active ingredient of formula I) at p kg/ha application rate • and • Y=% damage by herbicide B (active ingredient of Formula II) at q kg/ha application rate • and • E=the expected damage of the herbicides A and B at p and q kg/ha application rate, • then E=X+Y−(X*Y/100).

[2] = system: Amaranthus rudis; assay: Herbicidal action against Amaranthus rudis, single ingredients and combinations, with Colby expected action
From the text: as §1, §2, §3

[3] = system: Galium aparine; assay: Herbicidal action against Galium aparine, single ingredients and combinations, with Colby expected action; details: Table A-3 (first); application rate 3.75 g a.i./ha
From the text: as §1, §2, §3

`CS(=O)(=O)c1ccc(C(=O)C2C(=O)CCCC2=O)c(Cl)c1COCC1CCCO1` (centres unmarked) [Compound (B.7)] was tested, and the “Action against Alopecurus myosuroides (%)” value ([1]; Table A-1, application rate 3.75 g a.i./ha) was 0%, the “Action against Alopecurus myosuroides (%)” value ([1]; Table A-3 (second), application rate 7.5 g a.i./ha) was 0% and the “Action against Amaranthus rudis (%)” value ([2]; Table A-2, application rate 3.75 g a.i./ha) was 35%. For the same molecule, the “Action against Amaranthus rudis (%)” value ([2]; Table A-4, application rate 7.5 g a.i./ha) was 0% and the “Action against Galium aparine (%)” value [3] was 0%.
